Data published in US20250250218A1, “Anti-Amyloidogenic Curcumin Analogues” (MCPHS University, priority 2024, published 2025).

Experiments:
[1] = system: Drosophila melanogaster UAS-Aβ 1-42/nSyb-Gal4; test: Forced climbing assay in transgenic flies overexpressing Aβ; format: in vivo
From the text: To produce the transgenic Drosophila line of interest, UAS-Aβ42 1-42 female virgins were crossed with nSyb-Gal4 males. UAS-Aβ42 1-42 has a TM3, Sb balancer on the third chromosome, resulting in the mutant Sb gene, indicative of stubble bristles as a dominant marker. When crossed with the driver line, such as nSyb-Gal4, the transgenic line will either be UAS-Aβ42 1-42/nSyb-Gal4 or nSyb-Gal4/TM3, Sb. […] All offspring with the inherited balanced nSyb-Gal4TM3, Sb were negatively selected. Once enough F1 progeny of the transgenic line of interest were available, testing of the compounds was carried out. The extended chalcones of interest were dissolved in DMSO to a concentration of 5 mg/mL. […] These three concentrations were then introduced to each respective group. […] A forced climbing assay was conducted on the transgenic flies exposed to the extended chalcone compounds. […] The climbing assay was conducted five times a day, beginning on the seventh day after the flies were exposed to the compounds. Vials were marked with top, middle, and bottom sections, separated by one inch.

[2] = system: Aβ42; test: Human Aβ42 ELISA on heads of treated transgenic flies; format: in vivo; settings: any concentration fed (1, 10, 100 mcg/mL)
Method: To perform the ELISA, the samples were first thawed on ice. A protease inhibitor cocktail with AEBSF (a serine protease inhibitor) was added to each sample, with a final concentration of 1 mM, and were then centrifuged to remove the large particulate matter. After centrifugation, samples were diluted with Standard Diluent Buffer at a 1:50 ratio to ensure sample concentrations would be within the range of the standard curve. […] After 30 min, the solution was thoroughly aspirated, and the wells were washed four times with Ix Wash Buffer. Stabilizing Chromogen (100 mcL) was added to each well and the plate was incubated in the dark. After 30 min, 100 mcL of the Stop Solution was added to every well and the plate was read immediately at an absorbance of 450 nm.
Absorbance measurements for each sample and control were averaged, and from the calibration curve the corresponding level of AB was determined. Data were analyzed using a one-way ANOVA. […] Thus, the physiological benefit observed when the flies were fed either Compound 25, 33, or 34 at varying concentrations, was most likely a result of a decrease in brain plaque burden.

[3] = system: SH-SY5Y cells; test: MTT cell viability assay (neurotoxicity and neuroprotection); settings: 48 h; for decrease in cell viability, compound co-administered with Aβ42: compound at IC50 concentration + Aβ42 20 μM, Aβ42 alone […]%; for cytotoxicity / neurotoxicity of compound alone: compound at its IC50 concentration
Method: To test neurotoxicity and neuroprotective effects of the compounds, a 3-(4,5-dimethylthiazol-2-yl)-2,5-diphenyltetrazolium bromide (MTT) assay was performed using compounds 25, 33, and 34 as described [8].
SH-SY5Y cells (CRL-2266, ATCC, Manassas, VA) were maintained in SH-SY5Y cells (CRL-2266, ATCC, Manassas, VA, USA) were maintained in Dulbecco's Modified Eagle's Medium and Ham's F-12 Medium (DMEM: F12) supplemented with 50 mL fetal bovine serum (10%) and incubated at 37° C., 5% CO2, and 90% humidity. For the MTT assay, cells were sub-cultured using trypsin-ethylenediaminetetraacetic acid (EDTA) (0.25%) solution into clear 96-well plates and allowed to adhere for 24 h. […] All groups were incubated for 48 h.
The MTT assay (Ab211091, Abcam, Waltham, MA, USA) was used to measure cell viability with metabolically active cells reducing the MTT reagent into insoluble formazan. Following the removal of the treatment media, 50 μL of serum-free media and 50 riL of MTT Reagent was added to each well. The plate was then incubated at 37° C. for 3 h. After incubation, 150 μL of MTT Solvent was added into each well. The plate was then wrapped in foil and placed on an orbital plate shaker for 15 min. The absorbance was read at 590 nm.

[4] = target: Aβ1-42 peptide (Homo sapiens, UniProt P05067); test: Thioflavin T (ThT) fluorescence assay of Aβ1-42 aggregation (SensoLyte kit); format: biochemical; settings: Aβ1-42 35 μM, minimum of five concentrations, read-out: IC50, inhibition of Aβ aggregation (anti-amyloidogenic activity)
Chain of Aβ1-42 peptide (P05067 672-713 limits assumed): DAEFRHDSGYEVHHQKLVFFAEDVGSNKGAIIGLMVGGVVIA
Method: All newly synthesized compounds were screened for their anti-amyloidogenic activity on Aβ1-42 peptides, using Phenol Red as the internal standard—all at 100 μM. […] To obtain the IC50 values (shown in FIGS. 4A-4D), all compounds were tested at a minimum of five different concentrations.
Samples of ThT (final concentration of 200 μM) and Aβ1-42 peptide (final concentration of 35 μM) were incubated at 37° C. in a black clear bottom 96-well plate. The ThT fluorescence intensity of each sample was immediately measured every 5 min for 120 min, with 440/485 nm excitation/emission filters and with 15 sec shaking between reads to facilitate aggregation. An inhibitor control containing Aβ1-42 and a supplied aggregation inhibitor (Phenol Red), at a final concentration of 100 μM. The positive control contained Aβ1-42 without an inhibitor. […] All the wells were brought to 100 μL as a final volume.

[5] = 1 mcg/mL fly food, control 4.33%
[6] = 1 mcg/mL fly food, control approximately 95%

| Molecule | percentage of flies in middle section after 10 s [1, 5] | percentage of flies in bottom section after 10 s [1, 6] | percentage climbing compared to control, bottom, 95% CI ([1]; 1 mcg/mL, FIG. 8) | percentage climbing compared to control, middle, 95% CI ([1]; 1 mcg/mL, FIG. 8) | percentage of flies in bottom section after 10 s ([1]; 10 mcg/mL fly food) | percentage of flies in middle section after 10 s ([1]; 10 mcg/mL fly food) | percentage climbing compared to control, middle, 95% CI ([1]; 10 mcg/mL, FIG. 8) | change in levels of Aβ in fly heads (ELISA) [2] | decrease in cell viability, compound co-administered with Aβ42 [3] | cytotoxicity / neurotoxicity of compound alone [3] | IC50 [4] | further results |
| --- | --- | --- | --- | --- | --- | --- | --- | --- | --- | --- | --- | --- |
| O=C(/C=C/C=C/c1ccc(N2CCCCC2)cc1)c1ccc(Cl)cc1 [Compound 33, (2E,4E)-1-(4-chlorophenyl)-5-(4-(piperidin-1-yl)phenyl)penta-2,4-dien-1-one] | 26.00% | 66.00% | 18.63-40.04 | −29.70-−13.63 | 74.00% | 22.33% | −26.04-−9.964 | no statistically significant change | 52% | no cytotoxicity | 1.1 µM | percentage of flies in top section after 10 s ([1]; 1 mcg/mL fly food, control 0.33%): 8.00%; percentage climbing compared to control, top, 95% CI ([1]; 1 mcg/mL, FIG. 8): −12.8-−2.516; percentage climbing compared to control, bottom, 95% CI ([1]; 10 mcg/mL, FIG. 8): 10.63-32.04 |
| CSc1ccc(C(=O)/C=C/C=C/c2ccc(N(C)C)cc2)cc1 [Compound 18, (2E,4E)-5-(4-(dimethylamino)phenyl)-1-(4-(methylthio)phenyl)penta-2,4-dien-1-one] |  |  |  |  |  |  |  |  |  |  | 1.5 µM |  |
| CN(C)c1ccc(/C=C/C=C/C(=O)c2cc(Cl)cc(Cl)c2)cc1 [Compound 25, (2E,4E)-1-(3,5-dichlorophenyl)-5-(4-(dimethylamino)phenyl)penta-2,4-dien-1-one] | 15.56% | 82.15% | 1.543-24.82 | −18.97-−3.487 |  |  |  | no statistically significant change | 52% | no cytotoxicity | 0.91 µM |  |
| CN(C)c1ccc(C=CC=CC(=O)c2ccc(Cl)cc2)cc1 [Compound 3] |  |  |  |  |  |  |  |  |  |  | 2.4 µM |  |
| (2E,4E)-1-(4-chlorophenyl)-5-(4-(piperidin-1-yl)phenyl)penta-2,4-dien-1-one [Compound 34] |  |  |  |  | 82.50% | 15.00% | −18.78-−2.558 | no statistically significant change | 60% | no cytotoxicity | 0.62 µM | percentage of flies in bottom section after 10 s ([1]; 100 mcg/mL fly food): 81.26%; percentage of flies in middle section after 10 s ([1]; 100 mcg/mL fly food): 14.90%; percentage climbing compared to control, bottom, 95% CI ([1]; 100 mcg/mL, FIG. 8): 3.395-24.75; percentage climbing compared to control, middle, 95% CI ([1]; 100 mcg/mL, FIG. 8): −18.67-−2.463 |
| COc1ccc(C(=O)/C=C/C=C/c2ccc(N(C)C)cc2)cc1 [Compound 15, (2E,4E)-5-(4-(dimethylamino)phenyl)-1-(4-methoxyphenyl)penta-2,4-dien-1-one] |  |  |  |  |  |  |  |  |  |  | 3.2 µM |  |
